Measured values: the OligoGym collection
Bases are written 5' to 3'; sugars and linkages follow in the same order, as letters with counts (s phosphorothioate, o phosphodiester; PS: all linkages phosphorothioate). The collection does not say whether C is 5-methylated. l = locked nucleic acid (LNA); d = 2'-deoxy (DNA)

What follows are sequences tested against Tau (assay: rat primary cortical neurons, FLIPR, 25 uM ASO).

Row | Sequence | calcium oscillation score
1 | TCCCTTTCAAACCAGC (sugars l2 d10 l4, PS) | 92.3 % of control
2 | TCCTAAGTCAACCACAC (sugars l4 d11 l2, PS) | 56.6 % of control
3 | TCCTAAGTCAACCACACC (sugars l2 d14 l2, PS) | 69 % of control
4 | TCCTAATCCTGTGC (sugars l3 d8 l3, PS) | 65 % of control
5 | TCCTAATCCTGTGCT (sugars l3 d9 l3, PS) | 140 % of control
6 | TCCTAATCCTGTGCTT (sugars l3 d10 l3, PS) | 23 % of control
7 | TCCTAATTCCCAAATTCCT (sugars l2 d15 l2, PS) | 57.4 % of control
8 | TCCTAATTCCCAAATTCCTC (sugars l2 d15 l3, PS) | 76.6 % of control
9 | TCCTCACTTTACACATTA (sugars l3 d13 l2, PS) | 62.5 % of control
10 | TCCTCACTTTACACATTAA (sugars l4 d13 l2, PS) | 62.5 % of control
11 | TCCTCACTTTACACATTAAA (sugars l4 d14 l2, PS) | 70.3 % of control
12 | TCCTCCATTGTAACTA (sugars l4 d10 l2, PS) | 85.3 % of control
13 | TCCTCCATTGTAACTAC (sugars l2 d11 l4, PS) | 63.9 % of control
14 | TCCTCCATTGTAACTACT (sugars l2 d14 l2, PS) | 59.4 % of control
15 | TCCTCTCCTTTAAGAAA (sugars l3 d12 l2, PS) | 79.1 % of control
16 | TCCTGGCCATCTTATGCTGA (sugars l3 d14 l3, PS) | 31.2 % of control
17 | TCCTGGTTTATGATGG (sugars l3 d10 l3, PS) | 2.3 % of control
18 | TCCTGGTTTATGATGGATGT (sugars l3 d14 l3, PS) | 5.81 % of control
19 | TCCTGTGCTTCAGG (sugars l3 d8 l3, PS) | 108 % of control
20 | TCCTGTGCTTCAGGCC (sugars l3 d10 l3, PS) | 75.5 % of control
21 | TCCTTCTAAGTACAAT (sugars l4 d8 l4, PS) | 54.1 % of control
22 | TCCTTCTTCATTCTTG (sugars l3 d10 l3, PS) | 23.8 % of control

Row | Sequence | calcium oscillation score
23 | TCCTTGAAGTCAAGCTTCTC (sugars l3 d14 l3, PS) | 49.8 % of control
24 | TCCTTTGTAATTCCTTCT (sugars l3 d13 l2, PS) | 56.4 % of control
25 | TCGAAACCAAGGTCCCACCA (sugars l3 d14 l3, PS) | 28.2 % of control
26 | TCGATGCTGCCGGT (sugars l3 d8 l3, PS) | 13 % of control
27 | TCGATGCTGCCGGTGG (sugars l3 d10 l3, PS) | 33.9 % of control
28 | TCGCGGAAGGTCAGCTTGTG (sugars l3 d14 l3, PS) | 20.3 % of control
29 | TCGCTTCCAGTCCC (sugars l3 d8 l3, PS) | 142 % of control
30 | TCGCTTCCAGTCCCGT (sugars l3 d10 l3, PS) | 110 % of control
31 | TCGTCAGCTAGCGTGG (sugars l3 d10 l3, PS) | 55.2 % of control
32 | TCTAAGTAGACCCTGGCCAC (sugars l3 d14 l3, PS) | 23.8 % of control
33 | TCTAATTTAGTCACCAT (sugars l4 d10 l3, PS) | 96 % of control
34 | TCTACATTTTTGTCTCA (sugars l3 d11 l3, PS) | 47.1 % of control
35 | TCTACCATGTCGATGC (sugars l3 d10 l3, PS) | 51.8 % of control
36 | TCTAGTTATACAGTTGGCCC (sugars l3 d14 l3, PS) | 21.4 % of control
37 | TCTCAAAAATCAACGCC (sugars l4 d10 l3, PS) | 94.5 % of control
38 | TCTCAAATCAAACTAATAT (sugars l4 d11 l4, PS) | 58.1 % of control
39 | TCTCAAGTCTTATTCTC (sugars l3 d11 l3, PS) | 38.6 % of control
40 | TCTCAGATTTTACTTCC (sugars l4 d11 l2, PS) | 49.3 % of control
41 | TCTCAGCTCTTCCATAAGCA (sugars l3 d14 l3, PS) | 82.6 % of control
42 | TCTCAGTGGAGCCGATCTTG (sugars l3 d14 l3, PS) | 0 % of control
43 | TCTCGCGGAAGGTC (sugars l3 d8 l3, PS) | 75.7 % of control
44 | TCTCTAATTGTCCAATA (sugars l4 d9 l4, PS) | 69 % of control

Row | Sequence | calcium oscillation score
45 | TCTCTCTAGACATCTCA (sugars l2 d12 l3, PS) | 68.4 % of control
46 | TCTCTCTTAACTTTATTTTA (sugars l3 d13 l4, PS) | 80.8 % of control
47 | TCTCTGCTTACAAAATC (sugars l4 d9 l4, PS) | 66.8 % of control
48 | TCTCTTAACTTTATTTTATT (sugars l4 d12 l4, PS) | 84.9 % of control
49 | TCTGGCATGGGCACG (sugars l3 d9 l3, PS) | 119 % of control
50 | TCTGTCACTTACTACTCA (sugars l3 d13 l2, PS) | 66 % of control
51 | TCTGTCTTGGCTTTG (sugars l3 d9 l3, PS) | 40.6 % of control
52 | TCTTAATTCATTTAATTCTC (sugars l4 d12 l4, PS) | 87.1 % of control
53 | TCTTACAGCCAAATGCAGTC (sugars l3 d14 l3, PS) | 23.9 % of control
54 | TCTTAGAGGACTGCAACGCA (sugars l3 d14 l3, PS) | 25.7 % of control
55 | TCTTAGCATCAGAGGTTTCA (sugars l3 d14 l3, PS) | 18.5 % of control
56 | TCTTAGTCATCTTCCCT (sugars l3 d12 l2, PS) | 68.6 % of control
57 | TCTTATTGCTTTCCAAT (sugars l3 d10 l4, PS) | 101 % of control
58 | TCTTCACATCCCAACTA (sugars l2 d12 l3, PS) | 126 % of control
59 | TCTTCAGGTCTGGCAT (sugars l3 d10 l3, PS) | 39.1 % of control
60 | TCTTCATTCTTGCCCA (sugars l2 d12 l2, PS) | 38.1 % of control
61 | TCTTCCACTACAAGCTCC (sugars l2 d14 l2, PS) | 55.8 % of control
62 | TCTTCCATCACTTCGAACTC (sugars l3 d14 l3, PS) | 45.2 % of control
63 | TCTTCCTTTGTAATTCCT (sugars l3 d13 l2, PS) | 57.9 % of control
64 | TCTTCTAATATCCTTGC (sugars l3 d11 l3, PS) | 55.7 % of control
65 | TCTTGGCGGAAGACGG (sugars l3 d10 l3, PS) | 100 % of control
66 | TCTTGTGATGCAGGA (sugars l3 d9 l3, PS) | 91.8 % of control

Row | Sequence | calcium oscillation score
67 | TCTTGTTCTAACCCCACA (sugars l2 d14 l2, PS) | 68.1 % of control
68 | TCTTTATTAACACTCCA (sugars l4 d10 l3, PS) | 72.6 % of control
69 | TCTTTATTAACACTCCAC (sugars l2 d12 l4, PS) | 64.6 % of control
70 | TCTTTATTAACACTCCACA (sugars l4 d13 l2, PS) | 62.5 % of control
71 | TCTTTGAACACCCCATCT (sugars l2 d14 l2, PS) | 41 % of control
72 | TCTTTGCTTTTACTGACCAT (sugars l3 d14 l3, PS) | 29.6 % of control
73 | TGAACAGGAGAGCCATTTCC (sugars l3 d14 l3, PS) | 7.14 % of control
74 | TGAAGTCAAGCTTCTCAGAT (sugars l3 d14 l3, PS) | 0 % of control
75 | TGAAGTCCCGAGCCAAAGCC (sugars l3 d14 l3, PS) | 0 % of control
76 | TGAATAACATTAACCC (sugars l4 d8 l4, PS) | 54 % of control
77 | TGACCTCAACTCTACC (sugars l4 d10 l2, PS) | 68.5 % of control
78 | TGAGCACTAACTCTAAGTAG (sugars l3 d14 l3, PS) | 21.4 % of control
79 | TGAGCCACACTTGGAGGTCA (sugars l3 d14 l3, PS) | 4.52 % of control
80 | TGATAAAACATCCCTA (sugars l4 d8 l4, PS) | 80.5 % of control
81 | TGATACCCTTCCTCAG (sugars l2 d12 l2, PS) | 4.76 % of control
82 | TGATATTATCCTTTGAGCCA (sugars l3 d14 l3, PS) | 27.4 % of control
83 | TGATATTGTCCAGGGACCCA (sugars l3 d14 l3, PS) | 0 % of control
84 | TGATCACCCTAAACCA (sugars l3 d10 l3, PS) | 118 % of control
85 | TGATCTTAGGCTGGC (sugars l3 d9 l3, PS) | 44.1 % of control
86 | TGATGCAGGAGTTGTA (sugars l3 d10 l3, PS) | 7.62 % of control
87 | TGATGGATGTTGCCTA (sugars l3 d10 l3, PS) | 29.6 % of control
88 | TGATGGATGTTGCCTAATGA (sugars l3 d14 l3, PS) | 0 % of control

Row | Sequence | calcium oscillation score
89 | TGATTAACCAATTAACCGAA (sugars l3 d14 l3, PS) | 2.59 % of control
90 | TGATTGTGGGCTTA (sugars l3 d8 l3, PS) | 28.7 % of control
91 | TGATTGTGGGCTTAGG (sugars l3 d10 l3, PS) | 2.71 % of control
92 | TGCAAACACTCCCTCT (sugars l2 d10 l4, PS) | 35.4 % of control
93 | TGCAAGAGTCACTGCACTGC (sugars l3 d14 l3, PS) | 23.8 % of control
94 | TGCAATTTCCTTTCCAT (sugars l3 d11 l3, PS) | 67.6 % of control
95 | TGCACCCACTTTCCTAAT (sugars l4 d12 l2, PS) | 56.2 % of control
96 | TGCCCATTCAAAATCTT (sugars l3 d11 l3, PS) | 74.3 % of control
97 | TGCCTAATGAGCCACA (sugars l3 d10 l3, PS) | 44.4 % of control
98 | TGCCTAATGAGCCACACTTG (sugars l3 d14 l3, PS) | 29.9 % of control
99 | TGCTCAGCTAAGACCCTCAG (sugars l3 d14 l3, PS) | 29.4 % of control
100 | TGCTCTTAGCATCAGAGGTT (sugars l3 d14 l3, PS) | 25.9 % of control
101 | TGCTTACACACCACACA (sugars l2 d12 l3, PS) | 80.5 % of control
102 | TGCTTACACACCACACAC (sugars l2 d13 l3, PS) | 60.7 % of control
103 | TGCTTTTCCCAATTATT (sugars l3 d11 l3, PS) | 69.5 % of control
104 | TGGAAAGATGAAATTTGCTC (sugars l3 d14 l3, PS) | 5.81 % of control
105 | TGGACCACCTTACCAC (sugars l3 d10 l3, PS) | 48.1 % of control
106 | TGGACGTTGCTAAGAT (sugars l3 d10 l3, PS) | 0 % of control
107 | TGGAGCCGATCTTGGACTTG (sugars l3 d14 l3, PS) | 0 % of control
108 | TGGATATAGTTAAGGC (sugars l2 d11 l3, PS) | 95.2 % of control
109 | TGGATATAGTTAAGGC (sugars l2 d12 l2, PS) | 115 % of control
